Experimental data reported in patent publication US20160000762A1, “IMPROVING COGNITIVE FUNCTION” (THE REGENTS OF THE UNIVERSITY OF CALIFORNIA, priority 2013, published 2016).

How the values were obtained:
human APP = target: T1, human APP (Homo sapiens, UniProt P05067); experiment: Cell surface biotinylation, COS7 cells expressing APP; assay type: cell-based; conditions: 5 μM, 24 h
T1 construct: expressed in transfected cells; host or cells: COS7 cells
Protocol: Cell lines. COS 7 cells (Lombardi Co-Resources Cancer Center, Georgetown University) were maintained in Opti-MEMO (Invitrogen) with 10% fetal bovine serum (FBS, Life Technologies, Inc.) in a 5% CO2 incubator. The cells were transiently transfected with 0.5-1 μg of plasmid in FuGENE® 6 (Roche) according to the manufacturer's protocol and cultured 24 hr in DMEM containing 10% FBS. For co-transfections, cells were similarly transfected with 0.5-1 μg of each plasmid in FUGENE® 6 (Roche) and cultured 24 hr in DMEM with 10% FBS.
Cell surface biotinylation. COS7 cells were transiently transfected with APP for 24 hr in OPTI-MEM® containing 10% fetal bovine serum, and then treated with BTA-EG4 or control for 24 hr. After 24 hr, surface proteins were biotin labeled, immobilized with NeutrAvidin™ Gel and incubated 1 h with SDS-PAGE sample buffer, including 50 mM DTT, as described previously (Minami et al., 2010). Eluates were analyzed for APP by immunoblotting.
It is well known that the majority of a-secretase activity occurs on the cell surface, while β- and γ-secretase activity occurs primarily in the early and late endosomes (Huse et al., 2000; Reiss et al., 2006). Thus, if APP is present at the cell's surface, it is preferentially cleaved by α-secretase, resulting in decreased Aβ production. Therefore, we examined whether BTA-EG4 regulates cell surface expression of APP. […]

AMPAR and NMDAR subunits = experiment: Slice surface biotinylation, AMPAR and NMDAR subunits in CA1 slices; assay type: in vivo, mice
Protocol: Slice surface biotinylation. Hippocampal slices (400 μm thick) were prepared as described above. CA3 and DG regions were cut away after the slice preparation to isolate CA1. After 30 min recovery at room temperature, the slices were transferred to 30° C. for additional 30 min recovery. The slices were then transferred to ice-cold ACSF for 10 min, and subsequently to ice-cold ACSF containing 1 mg/ml biotin (EZ-Link Sulfo-NHS-SS-Biotin, Pierce) saturated with 5% CO2/95% O2 for 15 min. The slices were then washed in tris-buffered saline (TBS: 50 mM Tris, 0.9% NaCl, pH 7.4) containing 100 mM glycine 5 times for 1 min each before homogenized in ice-cold 0.2% SDS/1% Triton X-100 IPB (20 mM Na3PO4, 150 mM NaCl, 10 mM EDTA, 10 mM EGTA, 10 mM Na4P2O7, 50 mM NaF, and 1 mM Na3VO4, pH 7.4; with […] okadaic acid and 10 KIU/ml aprotinin) by 30 gentle strokes using glass-Teflon tissue homogenizers (Pyrex). The homogenates were centrifuged for 10 min at 13,200×g, 4° C. Protein concentration of the supernatant was normalized to 0.6-1.5 mg/ml. Some of the supernatants were saved as inputs, and the remaining supernatant was mixed with neutravidin slurry [1:1 in 1% Triton X-100 IPB (TX-IPB)] and rotated overnight at 4° C. The neutravidin beads were isolated by brief centrifugation at 1,000×g, and washed 3×1% TX-IPB, 3×1% TX-IPB+500 mM NaCl, followed by 2×1% TX-IPB. The biotinylated surface proteins were then eluded from the neutravidin beads by rotating at room temperature for 15 min in gel sample buffer with 2 mM DTT. The input (total homogenate) and biotinylated samples (surface fraction) were run on separate gels, and processed for immunoblot analysis using GluA1 (sc-55509, Santa Cruz), GluA2/3 (07-598, Upstate/Millipore), GluN1 (a gift from Dr. R. Huganir), GluN2A (07-632, Upstate/Millipore), and GluN2B (71-8600, Invitrogen) antibodies. NMDAR subunit blots were developed using enhanced chemifluorescence substrate (ECF™ substrate, Amersham). AMPAR blots were probed simultaneously with GluR1 and GluR2/3 antibodies followed by second antibodies linked to Cy5 and Cy3. All blots were scanned using TYPHOON™ 9400 (GE Health), and quantified using Image Quant TL software (GE Health). The signal of each sample on a blot was normalized to the average signal from the control group to obtain the % of average control values, which were compared across groups using unpaired Student's t-test.
To test whether the increase in functional excitatory synapses is via cell surface recruitment of glutamate receptors, we performed steady-state surface biotinylation using acute hippocampal slices obtained from mice injected with BTA-EG4 (30 mg/kg) or control vehicle for 2 weeks. Both the cell surface and total levels of major AMPAR subunits GluA1 and GluA2, as well as NMDAR subunits GluN1, GluN2A and GluN2B, were quantified.

Ras = experiment: GST-Raf1-RBD pulldown of active Ras, APP knock-out mice; assay type: in vivo
Protocol: GST-pull-down assay. To measure levels of active Ras, brain lysate homogenized with Ral buffer (25 mM Tris-HCl, pH 7.4, 250 mM NaCl, 0.5% NP40, 1.25 mM MgCl2, and 5% glycerol) from APP transgenic, APP knockout, or wild-type mice was incubated with GST-Raf-RBD purified protein coupled with GLUTATHIONE SEPHAROSE™ (Amersham) overnight at 4° C. After 24 hours, pellets were washed with Ral buffer and western blotting was conducted with anti-Ras.
Next, we investigated whether BTA-EG4 can alter Ras activity in APP KO mice by injecting control or BTA-EG4 for 2 weeks. […] Further, we examined the effect of BTA-EG4 on downstream Ras signaling in the presence or absence of APP. For this experiment, primary hippocampal neurons were transfected with GFP and APP shRNA or APP, treated with BTA-EG4 or control, and then immunostained against p-ERK or p-CREB.

T1 sequence (P05067 18-770): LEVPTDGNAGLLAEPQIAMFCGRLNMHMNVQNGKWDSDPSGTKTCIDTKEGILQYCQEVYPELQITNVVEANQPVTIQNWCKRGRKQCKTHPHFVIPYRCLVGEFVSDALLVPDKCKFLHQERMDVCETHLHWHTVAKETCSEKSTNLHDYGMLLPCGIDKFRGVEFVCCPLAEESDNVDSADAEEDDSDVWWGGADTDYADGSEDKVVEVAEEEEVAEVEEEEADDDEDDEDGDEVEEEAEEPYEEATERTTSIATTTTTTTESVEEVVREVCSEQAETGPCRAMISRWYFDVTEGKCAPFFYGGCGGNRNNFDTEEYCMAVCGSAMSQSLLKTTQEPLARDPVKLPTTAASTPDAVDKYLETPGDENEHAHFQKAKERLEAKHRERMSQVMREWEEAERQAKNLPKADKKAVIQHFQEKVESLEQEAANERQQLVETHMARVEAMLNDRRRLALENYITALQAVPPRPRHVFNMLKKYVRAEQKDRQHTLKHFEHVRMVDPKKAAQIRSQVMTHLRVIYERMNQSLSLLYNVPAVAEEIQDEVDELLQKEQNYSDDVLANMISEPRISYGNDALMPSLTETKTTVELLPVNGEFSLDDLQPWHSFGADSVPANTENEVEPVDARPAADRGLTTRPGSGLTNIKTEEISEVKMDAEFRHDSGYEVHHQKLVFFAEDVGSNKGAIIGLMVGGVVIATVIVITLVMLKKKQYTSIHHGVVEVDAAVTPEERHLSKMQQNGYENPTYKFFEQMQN

BTA-EG4
cell surface APP (human APP): increased
cell surface or total expression of GluA1, GluA2, GluN1, GluN2A, GluN2B (AMPAR and NMDAR subunits; 30 mg/kg, 2 weeks): no significant change
GluA1/β-actin ratio (AMPAR and NMDAR subunits; total homogenate, CTRL=0.96±0.10): 1.06±0.12
GluA2/β-actin ratio (AMPAR and NMDAR subunits; total homogenate, CTRL=0.98±0.09): 1.27±0.14
GluN1/β-actin ratio (AMPAR and NMDAR subunits; total homogenate, CTRL=0.98±0.12): 1.27±0.05
GluN2B/β-actin ratio (AMPAR and NMDAR subunits; total homogenate, CTRL=1.02±0.11): 1.33±0.14
GluN2A/β-actin ratio (AMPAR and NMDAR subunits; total homogenate, CTRL=1.03±0.08): 1.04±0.14
amount of active Ras (Ras; 30 mg/kg i.p., 2 weeks, CTRL (C)=100±1.22%, n=5): 03.2±1.26%
Ras activity (Ras; injected for 2 weeks): did not have altered
